According to PubChem BioAssay AID328 (DTP/NCI, 2004):
Values joined by “and” are separate entries in the source; they are usually repeats but may differ in a detail not shown here. Identical values can stand only once. Inconclusive results and toxic doses are left out.

Tested on: BDF1 mice, P388 leukemia ip, median survival T/C
Assay: NCI In Vivo Anticancer Drug Screen. Data for tumor model P388 Leukemia (intraperitoneal) in B6D2F1 (BDF1) mice
Conditions: endpoint: median survival time, higher = longer survival
Method in brief: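 In tumour-bearing mice, survival after compound treatment is set against the vehicle group and given as a quotient.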

[1] = dose: 50.0 mg/kg/injection, schedule: Q04DX003 (ip), vehicle: saline
[2] = dose: 25.0 mg/kg/injection, schedule: Q04DX003 (ip), vehicle: saline with Tween-80
[3] = dose: 50.0 mg/kg/injection, schedule: Q04DX003 (ip), vehicle: saline with Tween-80
[4] = dose: 12.5 mg/kg/injection, schedule: Q01DX009 (ip), vehicle: Klucel (hydroxypropylcellulose) (HPC)
[5] = dose: 25.0 mg/kg/injection, schedule: Q01DX009 (ip), vehicle: Klucel (hydroxypropylcellulose) (HPC)
[6] = dose: 50.0 mg/kg/injection, schedule: Q01DX009 (ip), vehicle: Klucel (hydroxypropylcellulose) (HPC)
[7] = dose: 25.0 mg/kg/injection, schedule: Q01DX009 (ip), vehicle: saline with Tween-80
[8] = dose: 50.0 mg/kg/injection, schedule: Q01DX009 (ip), vehicle: saline with Tween-80
[9] = dose: 100.0 mg/kg/injection, schedule: Q01DX009 (ip), vehicle: saline with Tween-80
[10] = dose: 200.0 mg/kg/injection, schedule: Q01DX009 (ip), vehicle: saline with Tween-80
[11] = dose: 400.0 mg/kg/injection, schedule: Q01DX009 (ip), vehicle: saline with Tween-80
[12] = dose: 12.5 mg/kg/injection, schedule: Q01DX009 (ip), vehicle: saline
[13] = dose: 25.0 mg/kg/injection, schedule: Q01DX009 (ip), vehicle: saline
[14] = dose: 25.0 mg/kg/injection, schedule: Q04DX003 (ip), vehicle: saline

NC(N)=Nc1ccc(C(=O)Oc2c(Cl)cc([N+](=O)[O-])cc2Cl)cc1
T/C (dose: 0.18 mg/kg/injection, schedule: Q01DX009 (ip), vehicle: saline): 94 % of control
T/C (dose: 0.39 mg/kg/injection, schedule: Q01DX009 (ip), vehicle: saline): 92 % of control
T/C (dose: 0.78 mg/kg/injection, schedule: Q01DX009 (ip), vehicle: saline): 96 % of control
T/C (dose: 1.56 mg/kg/injection, schedule: Q01DX009 (ip), vehicle: saline): 102 % of control
T/C (dose: 3.12 mg/kg/injection, schedule: Q01DX009 (ip), vehicle: saline): 86 % of control
T/C [1]: 95 % of control
T/C (dose: 100.0 mg/kg/injection, schedule: Q04DX003 (ip), vehicle: saline): 113 % of control

Cc1ccccc1-c1nc2cc(Cl)ccc2c(=O)o1
T/C [2]: 104 % of control
T/C [3]: 100 % of control
T/C (dose: 100.0 mg/kg/injection, schedule: Q04DX003 (ip), vehicle: saline with Tween-80): 109 % of control

Cc1ccc(NC2=CC(=O)C(=O)C=C2Nc2ccc(C)cc2)cc1
T/C (dose: 15.0 mg/kg/injection, schedule: Q01DX009 (ip), vehicle: saline with Tween-80): 88 % of control
T/C (dose: 30.0 mg/kg/injection, schedule: Q01DX009 (ip), vehicle: saline with Tween-80): 88 % of control
T/C (dose: 60.0 mg/kg/injection, schedule: Q01DX009 (ip), vehicle: saline with Tween-80): 100 % of control

O=[N+]([O-])/C=C/c1ccc([N+](=O)[O-])cc1Cl
T/C [4]: 109 % of control
T/C [5]: 109 % of control
T/C (dose: 25.0 mg/kg/injection, schedule: Q04DX003 (ip), vehicle: Klucel (hydroxypropylcellulose) (HPC)): 115 % of control
T/C [6]: 104 % of control
T/C (dose: 50.0 mg/kg/injection, schedule: Q04DX003 (ip), vehicle: Klucel (hydroxypropylcellulose) (HPC)): 107 % of control
T/C (dose: 100.0 mg/kg/injection, schedule: Q04DX003 (ip), vehicle: Klucel (hydroxypropylcellulose) (HPC)): 88 % of control

Cc1cc(N(CCOS(C)(=O)=O)CCOS(C)(=O)=O)ccc1C=Nc1ccc(-c2csc(Cc3ccccc3)n2)cc1
T/C (dose: 8.25 mg/kg/injection, schedule: Q01DX009 (ip), vehicle: Klucel (hydroxypropylcellulose) (HPC)): 100 % of control and 211 % of control
T/C (dose: 12.4 mg/kg/injection, schedule: Q01DX009 (ip), vehicle: Klucel (hydroxypropylcellulose) (HPC)): 225 % of control
T/C [4]: 250 % of control
T/C (dose: 18.7 mg/kg/injection, schedule: Q01DX009 (ip), vehicle: Klucel (hydroxypropylcellulose) (HPC)): 155 % of control
T/C (dose: 18.75 mg/kg/injection, schedule: Q01DX009 (ip), vehicle: Klucel (hydroxypropylcellulose) (HPC)): 227 % of control and 178 % of control
T/C (dose: 28.13 mg/kg/injection, schedule: Q01DX009 (ip), vehicle: Klucel (hydroxypropylcellulose) (HPC)): 99 % of control

Cc1c[n+]([O-])cc(C)c1[N+](=O)[O-]
T/C [7]: 100 % of control
T/C [8]: 90 % of control
T/C [9]: 90 % of control
T/C [10]: 100 % of control
T/C [11]: 100 % of control

Cc1cc(C)c(N)c(C)c1N
T/C [5]: 118 % of control
T/C [6]: 95 % of control
T/C (dose: 100.0 mg/kg/injection, schedule: Q04DX003 (ip), vehicle: other): 105 % of control
T/C (dose: 200.0 mg/kg/injection, schedule: Q04DX003 (ip), vehicle: other): 100 % of control
T/C (dose: 400.0 mg/kg/injection, schedule: Q04DX003 (ip), vehicle: other): 105 % of control

NC(=S)N/N=C/c1ccc(-c2ccccc2)cc1
T/C (dose: 12.5 mg/kg/injection, schedule: Q01DX009 (ip), vehicle: saline with Tween-80): 90 % of control
T/C [7]: 109 % of control
T/C [8]: 86 % of control

COc1cc(/C=N\O)nc(-c2ccccn2)c1
T/C [12]: 120 % of control
T/C [13]: 96 % of control and 120 % of control
T/C (dose: 50.0 mg/kg/injection, schedule: Q01DX009 (ip), vehicle: saline): 111 % of control and 123 % of control
T/C (dose: 100.0 mg/kg/injection, schedule: Q01DX009 (ip), vehicle: saline): 114 % of control

Cc1n(C(C)C)c2c([n+]1C)C(=O)c1ccccc1C2=O
T/C (dose: 1.25 mg/kg/injection, schedule: Q01DX009 (ip), vehicle: alcohol): 118 % of control
T/C (dose: 2.5 mg/kg/injection, schedule: Q01DX009 (ip), vehicle: alcohol): 122 % of control

C(/C=C\C=C/Nc1ccccc1)=Nc1ccccc1
T/C (dose: 10.0 mg/kg/injection, schedule: Q01DX009 (ip), vehicle: saline with Tween-80): 100 % of control
T/C (dose: 20.0 mg/kg/injection, schedule: Q01DX009 (ip), vehicle: saline with Tween-80): 91 % of control
T/C (dose: 40.0 mg/kg/injection, schedule: Q01DX009 (ip), vehicle: saline with Tween-80): 89 % of control

CCOC(=O)C(Cc1ccc(N(CCCl)CCCl)cc1)NC(=O)CNC(C)=O (centres undefined)
T/C (dose: 12.5 mg/kg/injection, schedule: Q04DX003 (ip), vehicle: saline with Tween-80): 177 % of control
T/C [2]: 200 % of control
T/C (dose: 33.0 mg/kg/injection, schedule: Q04DX003 (ip), vehicle: saline with Tween-80): 280 % of control and 218 % of control
T/C [3]: 259 % of control and 272 % of control and 170 % of control
T/C (dose: 75.0 mg/kg/injection, schedule: Q04DX003 (ip), vehicle: saline with Tween-80): 204 % of control

O=S(=O)(O)CCBr
T/C (dose: 265.0 mg/kg/injection, schedule: Q01DX001 (ip), vehicle: saline): 90 % of control
T/C (dose: 267.0 mg/kg/injection, schedule: Q01DX001 (ip), vehicle: saline): 100 % of control
T/C (dose: 400.0 mg/kg/injection, schedule: Q01DX001 (ip), vehicle: saline): 86 % of control and 90 % of control

NC1=C(N2CC2)C(=O)C(N)=C(N2CC2)C1=O
T/C (dose: 100.0 micrograms/kg/injection, schedule: Q01DX009 (ip), vehicle: saline): 178 % of control

COCC(O)Cn1ccnc1[N+](=O)[O-] (centres undefined)
T/C (dose: 540.0 mg/kg/injection, schedule: Q01DX001 (ip), vehicle: saline): 104 % of control
T/C (dose: 600.0 mg/kg/injection, schedule: Q01DX001 (ip), vehicle: saline): 92 % of control and 101 % of control
T/C (dose: 900.0 mg/kg/injection, schedule: Q01DX001 (ip), vehicle: saline): 107 % of control
T/C (dose: 1000.0 mg/kg/injection, schedule: Q01DX001 (ip), vehicle: saline): 99 % of control
T/C (dose: 1500.0 mg/kg/injection, schedule: Q01DX001 (ip), vehicle: saline): 104 % of control

NP(=O)(N1CC1)N1CC1
T/C (dose: 6.25 mg/kg/injection, schedule: Q04DX003 (ip), vehicle: saline): 100 % of control
T/C [14]: 230 % of control

CC(N)COCc1ccccc1 (centres undefined)
T/C [14]: 104 % of control
T/C [1]: 95 % of control

O=Nc1c(N=O)c(N=O)c(N=O)c(N=O)c1N=O
T/C (dose: 1.25 mg/kg/injection, schedule: Q01DX010 (ip), vehicle: saline): 90 % of control
T/C (dose: 2.5 mg/kg/injection, schedule: Q01DX010 (ip), vehicle: saline): 100 % of control
T/C (dose: 5.0 mg/kg/injection, schedule: Q01DX010 (ip), vehicle: saline): 100 % of control
T/C (dose: 10.0 mg/kg/injection, schedule: Q01DX010 (ip), vehicle: saline): 95 % of control
T/C (dose: 80.0 mg/kg/injection, schedule: Q01DX010 (ip), vehicle: saline): 104 % of control

C=C(C)c1c2ccccc2cc2cccc(Sc3ccccc3)c12
T/C [9]: 100 % of control
T/C [10]: 95 % of control
T/C [11]: 100 % of control

CCOC(=O)CN1C(=O)S/C(=C/c2ccc([N+](=O)[O-])o2)C1=O
T/C (dose: 100.0 mg/kg/injection, schedule: Q04DX002 (ip), vehicle: saline with Tween-80): 94 % of control
T/C (dose: 200.0 mg/kg/injection, schedule: Q04DX002 (ip), vehicle: saline with Tween-80): 105 % of control

Cc1ccnc(=O)[nH]1
T/C (dose: 3.13 mg/kg/injection, schedule: Q01DX009 (ip), vehicle: saline): 103 % of control
T/C (dose: 6.25 mg/kg/injection, schedule: Q01DX009 (ip), vehicle: saline): 115 % of control
T/C [12]: 99 % of control
T/C [13]: 105 % of control
